Reference: patent US20230014226A1, “NEW COMPOUNDS AND METHODS” (BenevolentAI Bio Limited, priority 2019, published 2023)
Read-outs that look alike come from different tables or passages of the source.

What was measured:
HUVEC = HUVEC Cell Viability (CV) assay; assay type: cell-based, human; details: for IC50: Homo sapiens, alamarBlue
Experimental: Cells are seeded at 10,000 cells/well in 96-well plates in HUVEC specific cell culture media. Cells are plated and cultured overnight (16-24 h) at 37° C. After the overnight culture, cells are washed and fed with the Assay Medium. Test compounds are applied and incubated with the cells for the designated time period, after which the cell viability is measured by alamarBlue method. […] The final DMSO concentration is 1%.
Fluorescence readings are recorded after the test compound and alamarBlue incubation. The excitation and emission wavelengths are 530 nm and 590 nm, respectively.
The percent of control is calculated by comparing the readings in the presence of the test compound to the vehicle control. Subsequently, the percent inhibition is calculated by subtracting the percent control activity from 100. IC50 values (concentration causing a half-maximal inhibition of the control value) are determined by non-linear regression analysis of the concentration-response curves using the Hill equation.
The reference compound used for this assay is Staurosporine.

hERG ion channel = hERG ion channel (Homo sapiens, UniProt Q12809); test: hERG QPatch automated patch clamp; assay type: cell-based; details: CHO cells stably expressing hERG, QPatch 48, tail current
Experimental: hERG IC50 data was supplied by Metrion using their standard assay protocol briefly detailed below.
hERG ion channel screening was assayed in CHO cells stably expressing the human ether-á-go-go related gene, using the QPatch 48 automated, chip-based planar patch clamp device. A Gigaohm seal between the cell membrane and treated silicon surface was obtained and specific external and internal buffered solutions applied to cells prior to recording. Following baseline vehicle treatment, compounds were applied in increasing concentrations (8 pt CRC), effects on hERG tail current amplitudes were measured in two-minute recordings.

[1] = tested on: SC-hCMs (stem cell cardiomyocytes); test: Cardiomyocyte assay (CRL), iPSC cardiomyocytes; assay type: cell-based, human; details: for effect on sodium spike amplitude vs. control (given as reduction for nilotinib and Example 39): 10 μM after 48 hours; for ΔΔ Na Spike Amp at 10 μM, 48 h (%): corrected by time matched controls
Experimental: All measurements were performed at physiological temperature in a tissue culture incubator (37° C.; 5% CO2). Test article, positive controls and vehicle were added in a sterile tissue culture hood.
At least 10 h before compound addition SC-hCMs were exposed to the fresh culture medium. Before compound addition a one-minute recording of field potentials and impedance signals (baseline) was obtained. Test articles, vehicle and positive controls were added as a 2× concentration. One-minute recordings were obtained 0.5, 1, 2, 24 and 48 h after test article addition.
At the time of drug application, culture medium was added to an independent 96 well plate that was incubated in a tissue culture incubator for 48 h. This culture medium was used as the blank of the cTnI release assay.
After the 48 h exposure recording, 150 μL of each well was centrifuged to remove debris. The supernatant was collected and frozen for later cTnI content analysis using an ELISA plate according the manufacturer's instructions (Abcam, cat #ab200016).
Data was stored on the Charles River Laboratories computer network for off-line analysis. Data acquisition was performed using RTCA Cardio Software.
Data analysis was performed using RTCA Cardio Software, Microsoft Excel and Matlab scripts. Data were reported as mean±SEM.
The following field potential parameters were quantitated: Sodium Spike amplitude, Sodium Spike Rate, field potential duration (FPD), Bazett corrected field potential duration (FPDcB), and dysrhythmic events if present.
The following impedance parameters were quantitated: Cell Index, peak amplitude, relaxation from peak to 50% amplitude (Rel50) and twitch duration.
The sodium spike is the voltage signal produced by the propagation of the depolarizing wave (positive peak) and the local activation of sodium channels (negative peak). The sodium spike amplitude is the voltage difference (in […]) between the positive and negative peaks of the sodium spike. The Sodium Spike Rate is a measure of the rate of sodium spike generation (spikes/min) produced by the spontaneous beating of stem cell cardiomyocytes.
Abnormal rhythm activity was characterized by the presence of the following proarrhythmic markers:
Triggered activity: Triggered activity (TA) is activity characterized by the presence of voltage oscillations during the repolarization period (Early After Depolarizations, EADs) or after the repolarization is completed (Delayed After Depolarizations, DADs). They are produced by different mechanisms. EADs are due to reactivation of sodium and calcium currents due to prolongation of the action potential. DADs are due to transient releases of calcium from intracellular calcium stores. Both EADs and DADs can trigger action potentials (ectopic beats, EB).
Impedance instability: Impedance instability (II) consist of small oscillations of the impedance signal during the slower relaxation phase of the impedance twitch sometimes associated with small oscillations of the field potential (FPO). […] II informs about the possibility of drug-induced delayed repolarization setting the background where more robust proarrhythmic markers like EADs and DADs occur.
The SEM of the difference was calculated according to the following equation ΔΔSEM=(SEMtreatment2+SEMcontrol2)0.5.
The statistical analysis includes 1) a Student paired t-test to evaluate the changes respect to baseline and, 2) a multi-comparison analysis (Dunnett's test) of A % changes respect to time matched controls. An alpha probability of 0.05 was considered significant.

[2] = tested on: HUVEC (human umbilical venous endothelial cells); test: HUVEC Tube Formation assay; assay type: cell-based; details: 18 h incubation, read-out: Tube formation GI50
Experimental: HUVEC (human umbilical venous endothelial cells, 1.5×10^4/well, ATCC CRL-1730) are placed in an earlier prepared 96-well plate. Test substance and/or vehicle is then added to each well in a final concentration of 0.4% DMSO in growth medium under an atmosphere of 5% CO2 at 37° C. After an 18 h incubation period, morphology of the endothelial cell tubes, which resemble a capillary-like network, are evaluated by a confocal high-content imaging system. Disruption (anti-angiogenesis) of total tube length is measured from each photograph and determined relative to the vehicle control group. […] Compounds are screened at 30, 3, 0.3, 0.03 and 0.003 μM (or μg/mL) in triplicate.

[3] = target: T1, recombinant human P450 enzyme 1A1 (Homo sapiens, UniProt P04798); test: Formation of reactive metabolites (glutathione adduct) by CYP1A1 with human liver cytosol; assay type: in vitro ADME; details: 50 μM, human liver cytosol + recombinant CYP1A1, NADPH and GSH, 60 min
T1 construct: host or cells: Bacterial membranes (bactosomes), inferred from the named control preparation
T1 sequence (P04798 1-512): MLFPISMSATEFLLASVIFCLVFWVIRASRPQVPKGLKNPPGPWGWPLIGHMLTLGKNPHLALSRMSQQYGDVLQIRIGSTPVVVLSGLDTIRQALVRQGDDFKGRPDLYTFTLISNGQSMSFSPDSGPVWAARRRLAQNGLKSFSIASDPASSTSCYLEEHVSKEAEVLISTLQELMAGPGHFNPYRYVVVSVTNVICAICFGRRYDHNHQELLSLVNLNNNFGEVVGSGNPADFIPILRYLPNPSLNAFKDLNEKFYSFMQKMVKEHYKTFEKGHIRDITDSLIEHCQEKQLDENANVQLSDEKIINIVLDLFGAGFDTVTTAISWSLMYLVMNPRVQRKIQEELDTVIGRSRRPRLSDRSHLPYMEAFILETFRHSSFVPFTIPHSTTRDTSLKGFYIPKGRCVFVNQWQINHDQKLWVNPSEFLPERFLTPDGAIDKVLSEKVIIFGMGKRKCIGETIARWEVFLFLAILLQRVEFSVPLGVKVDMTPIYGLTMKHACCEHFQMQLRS
Experimental: Investigations into the potential for test compound to form a reactive metabolite were performed using an adapted method detailed by De Lin et al. Briefly, test compound was pre-incubated (n=2; 50 μM substrate concentration) at 37° C. for 5 min with mixed-gender human liver cytosol (1 mg/mL total protein concentration) in 100 mM phosphate buffer (pH 7.4) with 5 mM MgCl2 in the presence of recombinant human P450 enzyme 1A1 (100 nM), in the presence and absence of 5 mM glutathione. At the end of the pre-incubation period, 2 mM NADPH was added to each sample and the mixture incubated at 37° C. for 60 min. Immediately following the addition of NADPH and after the 60 min incubation period, aliquots of each sample were mixed with MeCN (containing internal standard) to terminate the reaction and precipitate the proteins.
Samples were mixed, centrifuged and following appropriate dilution, supernatants were analysed by LC-MS utilising a high-resolution mass spectrometer to perform metabolite identification and characterisation analysis.

[4] = tested on: HUVEC (human umbilical venous endothelial cells); details: HUVEC tube formation reference; read-out: expected GI50 of reference compound; cited from earlier work

Chain of hERG ion channel (Q12809 whole entry): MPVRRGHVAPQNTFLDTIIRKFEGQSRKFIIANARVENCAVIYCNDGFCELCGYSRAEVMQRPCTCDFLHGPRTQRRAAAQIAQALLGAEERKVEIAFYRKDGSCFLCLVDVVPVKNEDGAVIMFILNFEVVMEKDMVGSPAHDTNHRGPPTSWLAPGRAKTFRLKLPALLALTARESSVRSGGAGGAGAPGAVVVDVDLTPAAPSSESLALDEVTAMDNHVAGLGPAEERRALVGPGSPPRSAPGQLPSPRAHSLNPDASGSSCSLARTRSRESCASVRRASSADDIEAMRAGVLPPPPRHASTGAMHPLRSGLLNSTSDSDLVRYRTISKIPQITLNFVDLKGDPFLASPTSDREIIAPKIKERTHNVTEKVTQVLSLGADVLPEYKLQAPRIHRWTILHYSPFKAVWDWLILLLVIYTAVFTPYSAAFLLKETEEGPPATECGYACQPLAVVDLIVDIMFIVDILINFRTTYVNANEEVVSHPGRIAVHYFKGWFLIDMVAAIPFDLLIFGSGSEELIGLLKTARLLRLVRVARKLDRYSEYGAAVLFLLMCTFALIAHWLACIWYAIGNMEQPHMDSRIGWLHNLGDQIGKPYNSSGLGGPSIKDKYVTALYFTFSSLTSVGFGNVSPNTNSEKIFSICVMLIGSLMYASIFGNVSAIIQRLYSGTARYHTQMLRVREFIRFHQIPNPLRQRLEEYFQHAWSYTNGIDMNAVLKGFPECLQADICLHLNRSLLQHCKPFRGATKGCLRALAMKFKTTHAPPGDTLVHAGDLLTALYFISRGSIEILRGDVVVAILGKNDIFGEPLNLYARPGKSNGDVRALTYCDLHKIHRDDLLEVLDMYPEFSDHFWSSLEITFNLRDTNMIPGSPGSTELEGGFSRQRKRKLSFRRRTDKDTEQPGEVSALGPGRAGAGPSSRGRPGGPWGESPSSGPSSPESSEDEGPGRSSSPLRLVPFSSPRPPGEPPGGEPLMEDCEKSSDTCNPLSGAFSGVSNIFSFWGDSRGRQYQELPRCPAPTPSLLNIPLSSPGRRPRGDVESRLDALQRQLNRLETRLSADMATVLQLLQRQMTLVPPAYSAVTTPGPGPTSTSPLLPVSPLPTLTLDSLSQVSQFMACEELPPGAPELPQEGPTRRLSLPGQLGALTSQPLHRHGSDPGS

Row | SMILES | IC50 (HUVEC) [µM] | IC50 (hERG ion channel) [µM] | effect on sodium spike amplitude vs. control (given as reduction for nilotinib and Example 39) [1] [%] | Proarrhythmic Markers at 10 μM, 48 h [1] | ΔΔ Na Spike Amp at 10 μM, 48 h (%) [1] [%] | GI50 [2] [µM] | effect on cell viability compared to the compounds of the invention (HUVEC) [fold] | cTnI release / secretion ([1]; 10 μM (48 h), relative to vehicle) | formation of direct glutathione adduct [3] | formation of direct glutathione adduct ([3]; listed as ponatinib) | GI50 [4] [µM]
1 | Cc1ccc(C(=O)Nc2cn3c(n2)COCC3(C)C)cc1C#Cc1cccnc1 [Example 39, N-(5,5-dimethyl-6,8-dihydroimidazo[2,1-c][1,4]oxazin-2-yl)-4-methyl-3-[2-(3-pyridyl)ethynyl]benzamide] | 21 | > 10 | 43 | Not Observed | −43.3 | > 30 |  |  |  |  | 
2 | Cc1ccc(C(=O)Nc2ccc(CN3CCN(C)CC3)c(C(F)(F)F)c2)cc1C#Cc1cnc2cccnn12 [Ponatinib, reference compound] |  |  |  |  |  |  | ~10 | increased troponin (cTnI) secretion | forms a glutathione adduct | forms a significant direct glutathione adduct | 
3 | Cc1ccc(C(=O)Nc2ccc(S(=O)(=O)O)c3cc(S(=O)(=O)O)cc(S(=O)(=O)O)c23)cc1NC(=O)c1cccc(NC(=O)Nc2cccc(C(=O)Nc3cc(C(=O)Nc4ccc(S(=O)(=O)O)c5cc(S(=O)(=O)O)cc(S(=O)(=O)O)c45)ccc3C)c2)c1 [Suramin] |  |  |  |  |  |  |  |  |  |  | 15
4 | Cc1ccc(C(=O)Nc2cc3n(n2)CCCC3(F)F)cc1C#Cc1cccnc1 [Example 97, N-(4,4-difluoro-6,7-dihydro-5H-pyrazolo[1,5-a]pyridin-2-yl)-4-methyl-3-[2-(3-pyridyl)ethynyl]benzamide] | 3.6 | > 10 | 2.2 | Not Observed | 2.20 | > 10 |  |  |  |  | 
